Reference: the supplement of paper PMC11061612

Tests used:
Assay in all cases: combination Emax (second highest fraction inhibited in the dose matrix, 72 h); higher = more inhibition; extreme values may be limits of the assay
[1] = test system: COR-L95 (Small Cell Lung Carcinoma)
Summary of the method: (§1)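 Cell lines in DMEM/F12 or RPMI with 10% FBS were plated in 1536-well plates, held 24 hours at 37°C, 5% CO2, then given two-drug dose matrices for 72 hours (DMSO typically 0.2%). Viability was read by CellTiter-Glo 2.0 luminescence and scaled as inhibition from 0 (vehicle wells) to 1 (blank wells). Combination Emax is the second-highest inhibition in the matrix; Bliss excess is observed combination effect minus expected EA + EB − EA·EB, EA and EB being single-agent effects.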

[2] = test system: DB (B-Cell Non-Hodgkin's Lymphoma)
Summary of the method: as §1

ES7 (Ewing's Sarcoma) = test system: ES7 (Ewing's Sarcoma)
Summary of the method: as §1

[3] = test system: G-292-Clone-A141B1 (Osteosarcoma)
Summary of the method: as §1

[4] = test system: HT-29 (Colorectal Carcinoma)
Summary of the method: as §1

[5] = test system: IHH-4 (Thyroid Gland Carcinoma)
Summary of the method: as §1

[6] = test system: KARPAS-620 (Plasma Cell Myeloma)
Summary of the method: as §1

[7] = test system: MDA-MB-157 (Breast Carcinoma)
Summary of the method: as §1

[8] = test system: MDA-MB-231 (Breast Carcinoma)
Summary of the method: as §1

[9] = test system: MFH-ino (Other Solid Carcinomas)
Summary of the method: as §1

[10] = test system: NALM-6 (B-Lymphoblastic Leukemia)
Summary of the method: as §1

[11] = test system: NCI-H1299 (Non-Small Cell Lung Carcinoma)
Summary of the method: as §1

[12] = test system: NCI-H211 (Small Cell Lung Carcinoma)
Summary of the method: as §1

NCI-H2595 (Mesothelioma) = test system: NCI-H2595 (Mesothelioma)
Summary of the method: as §1

[13] = test system: OCI-AML2 (Acute Myeloid Leukemia)
Summary of the method: as §1

SN12C (Kidney Carcinoma) = test system: SN12C (Kidney Carcinoma)
Summary of the method: as §1

[14] = test system: SW1088 (Low Grade Glioma)
Summary of the method: as §1

[15] = test system: SW1783 (Low Grade Glioma)
Summary of the method: as §1

[16] = test system: SW1990 (Pancreatic Carcinoma)
Summary of the method: as §1

[17] = test system: TE-5 (Esophageal Squamous Cell Carcinoma)
Summary of the method: as §1

Compound	combination Emax [1]	combination Emax [2]	combination Emax (ES7 (Ewing's Sarcoma))	combination Emax [3]	combination Emax [4]	combination Emax [5]	combination Emax [6]	combination Emax [7]	combination Emax [8]	combination Emax [9]	combination Emax [10]	combination Emax [11]	combination Emax [12]	combination Emax (NCI-H2595 (Mesothelioma))	combination Emax [13]	combination Emax (SN12C (Kidney Carcinoma))	combination Emax [14]	combination Emax [15]	combination Emax [16]	combination Emax [17]
C[C@@H](Nc1cc(F)cc(F)c1)c1cc(C(=O)N(C)C)cc2c(=O)cc(N3CCOCC3)oc12 [AZD8186] + C1CN(CCC1(C(=O)N[C@@H](CCO)C2=CC=C(C=C2)Cl)N)C3=NC=NC4=C3C=CN4 [AZD5363] (first compound max 10 µM, 7x7, partner max 10 µM)	0.225	0.0629	0.509	0.515	0.449	0.227	0.767	0.264	0.281	0.348	0.674	0.314	0.406	0.24	0.473	0.149	0.742	0.479	0.188	0.35
N#Cc1cnc(Nc2cc(NC[C@H]3CNCCO3)c(C(F)(F)F)cn2)cn1 [SRA737] + C=CCn1c(=O)c2cnc(Nc3ccc(N4CCN(C)CC4)cc3)nc2n1-c1cccc(C(C)(C)O)n1 [AZD1775] (first compound max 10 µM, partner max 1 µM)	0.299	0.87	0.829	0.239	0.827	0.825	0.779	0.955	0.807	0.441	0.969	0.674	0.971	0.236	1	0.212	0.77	0.467	0.507	0.482
CN(CCO)CC[C@H](CSc1ccccc1)Nc1ccc(S(=O)(=O)NC(=O)c2ccc(N3CCC([C@@H](O)c4ccccc4-c4ccc(Cl)cc4)CC3)cc2)cc1S(=O)(=O)C(F)(F)F [AZD4320] + CS(=O)(=O)CCNCc1ccc(-c2ccc3ncnc(Nc4ccc(OCc5cccc(F)c5)c(Cl)c4)c3c2)o1 [Lapatinib] (first compound max 1 µM, 7x7, partner max 10 µM)	1	1	0.984	0.949	0.928	0.268	1	0.328	0.951	0.262	1	0.244	1	0.329	1	0.347	0.388	0.883	0.302	0.888
